Assay results published in PubChem BioAssay (NCI).
“And” between values parts separate entries of the source, which are not always exact repeats. Equal values may be shown once.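 Assay format: 96-well plates, 48-hour exposure. Abbreviation: GI50, concentration required for 50% inhibition of growth. TGI denotes the concentration required for complete inhibition of growth.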

How the values were obtained:
Assay in all cases: NCI-60 cell line screen, 48 h
HS 578T breast = tested on: HS 578T breast
SNB-19 CNS = tested on: SNB-19 CNS
COLO 205 colon = tested on: COLO 205 colon
SK-MEL-28 melanoma = tested on: SK-MEL-28 melanoma
T-47D breast = tested on: T-47D breast
EKVX NSCLC = tested on: EKVX NSCLC
K-562 leukemia = tested on: K-562 leukemia
CCRF-CEM leukemia = tested on: CCRF-CEM leukemia
786-0 renal = tested on: 786-0 renal
MOLT-4 leukemia = tested on: MOLT-4 leukemia
SR leukemia = tested on: SR leukemia
MALME-3M melanoma = tested on: MALME-3M melanoma
OVCAR-4 ovarian = tested on: OVCAR-4 ovarian

Row | Compound | TGI (HS 578T breast) | TGI (SNB-19 CNS) | TGI (COLO 205 colon) | TGI (SK-MEL-28 melanoma) | TGI (T-47D breast) | TGI (EKVX NSCLC) | TGI (K-562 leukemia) | TGI (CCRF-CEM leukemia) | TGI (786-0 renal) | TGI (MOLT-4 leukemia) | TGI (SR leukemia) | TGI (MALME-3M melanoma) | TGI (OVCAR-4 ovarian) | GI50 (HS 578T breast) | GI50 (SNB-19 CNS) | GI50 (T-47D breast) | GI50 (CCRF-CEM leukemia)
1 | CN(C)c1ccc(/C=C/C=C(/C#N)c2ccccc2)cc1 | 69.2 µM | > 88.1 µM | > 92.1 µM | > 100 µM | > 100 µM | > 100 µM | > 38 µM | > 77.1 µM | > 62.7 µM | > 55.7 µM | > 39.7 µM | > 100 µM | > 65.8 µM |  |  |  | 
2 | Clc1ccc(C2NN=C3c4ccccc4OCC32)cc1 (centres undefined) | 14.6 µM | > 100 µM | 12.4 µM | > 85.6 µM | 54.3 µM | 27.2 µM | > 22.9 µM | > 74.8 µM | 29.5 µM | 26.9 µM | 5.67 µM | 23.1 µM | > 73.1 µM |  |  |  | 
3 | Cc1cccc2c1NC(=S)[C@@H]1CCCN1C2=O | > 100 µM | > 100 µM | > 100 µM | > 100 µM | > 100 µM | > 100 µM | > 100 µM | > 100 µM | > 100 µM | > 100 µM | > 100 µM | > 100 µM | > 100 µM |  |  |  | 
4 | O=C(N/N=C\c1ccc2ccccc2c1)Nc1ccc([N+](=O)[O-])cc1 | > 100 µM | > 100 µM | > 60 µM | > 84.8 µM | > 59 µM | > 100 µM | > 100 µM | > 100 µM | > 62.8 µM | 97.7 µM | > 100 µM | > 70.9 µM | > 70.2 µM |  |  |  | 
5 | CC1C[C@]2(C)C(=O)N(c3ccccc3)C(=N)[C@@H]2N(C)c2ccccc21 (some centres undefined) | > 100 µM | > 100 µM | > 100 µM | > 100 µM | > 100 µM | > 100 µM | > 100 µM | > 100 µM | > 100 µM | > 100 µM | > 100 µM | > 100 µM | > 100 µM |  |  |  | 
6 | Cn1c2ccccc2c(=NNc2ccc(C(=O)O)cc2)c2ccccc21 | 55.9 µM | > 100 µM | 32.3 µM | 60.7 µM | 58.9 µM | 32.2 µM | 23.3 µM | 40.5 µM | 84.4 µM | 57.4 µM | 42.7 µM | 40.8 µM | 49 µM |  |  |  | 
7 | OC1COC(n2c3ccc(Br)cc3c3ccc4c5ccccc5[nH]c4c32)C(O)C1O (centres undefined) | 18.1 µM | 28.2 µM | 3.65 µM | 28.9 µM | 20.1 µM | 17.3 µM | 13.6 µM | 19.3 µM | 17.8 µM | 11.2 µM | 13.3 µM | 15.3 µM | > 46.2 µM |  |  |  | 
8 | Cc1nnc2n1-c1ccccc1C(=S)N1CSCC21 (centres undefined) | > 100 µM | > 100 µM | > 100 µM | > 100 µM | > 100 µM | > 100 µM | > 100 µM | > 100 µM | > 100 µM | > 100 µM | > 100 µM | > 100 µM | > 100 µM |  |  |  | 
9 | O=S1C2=C(Cc3ccccc3)C(Cc3ccccc3)=C1CCc1cccc(c1)CC2 | 48.8 µM | 28.1 µM | 58.8 µM | 42.3 µM | 44.8 µM | 26.3 µM | > 100 µM | > 100 µM | 28.9 µM | 63.7 µM | 90.2 µM | 32.5 µM | 21.4 µM |  |  |  | 
10 | COc1ccc(N=C(Nc2ccc(OC)cc2)C(=Nc2ccc(OC)cc2)Nc2ccc(OC)cc2)cc1 | > 100 µM | > 100 µM | > 100 µM | > 100 µM | > 100 µM | > 100 µM | > 100 µM | > 100 µM | > 100 µM | > 100 µM | > 100 µM | > 100 µM | > 100 µM |  |  |  | 
11 | O=C1CCCCc2cccc(O)c21 | > 100 µM | > 100 µM | > 100 µM | > 100 µM | > 100 µM | > 100 µM | > 100 µM | > 100 µM | > 100 µM | > 100 µM | > 100 µM | > 100 µM | > 100 µM |  |  |  | 
12 | CNC(=S)N/N=C/c1cccc(C)n1 | > 100 µM | > 100 µM | > 85.2 µM | > 100 µM | > 92.4 µM | > 100 µM | > 100 µM | > 73.6 µM | 98.5 µM | > 87 µM | > 78.1 µM | > 100 µM | > 100 µM |  |  |  | 
13 | C#C[C@]1(O)CC[C@H]2[C@@H]3CCc4cc(OC(=O)c5cccc6cc7ccccc7nc56)ccc4[C@H]3CC[C@@]21C | > 100 µM | > 100 µM | 43.7 µM | > 100 µM | 34 µM | > 100 µM | > 100 µM | > 100 µM | 96.4 µM | > 100 µM | > 100 µM | 34.7 µM | > 100 µM |  |  |  | 
14 | O[C@@H]1C[C@@H]2N[C@@](O)(C[C@@H]2O)[C@H]1O | > 100 µM | > 100 µM | > 100 µM | > 100 µM | > 100 µM | > 100 µM | > 100 µM | > 100 µM | > 100 µM | > 100 µM | > 100 µM | > 100 µM | > 100 µM |  |  |  | 
15 | CCOc1ccc(NCc2cc(OC)c(OC)c(OC)c2)cc1 | > 100 µM | > 100 µM | 2.46 µM and 5.04 µM | > 100 µM | > 100 µM | > 100 µM | > 63.1 µM | > 74.9 µM | > 100 µM | > 100 µM | > 100 µM | > 100 µM | > 100 µM | 0.823 µM | 4.9 µM | 1.66 µM and 4.48 µM | 0.759 µM and 1.7 µM
